Experimental data reported in patent US20100234308A1, “WAKE-UP REMEDY” (Kyowa Hakko Kogyo Co., Ltd., priority 2006, published 2010).
Peptide text beside a SMILES is read from it.

How the values were obtained:
[1] = cited from earlier work
[2] = cited from earlier work; remark: listed apart in the source
healthy person = assay: Wake-up remedial effect of alanylglutamine on daily consumption (Test Examples 1 and 2); format: in vivo, human; conditions: continuously for 1 month
Description: Test examples in which the wake-up remedial effect of alanylglutamine was examined are indicated below.

NC(=O)CC[C@H](N)C(=O)O [glutamine, reference compound]
solubility [1]: low-solubility

C[C@H](N)C(=O)N[C@@H](CCC(N)=O)C(=O)O [alanylglutamine] (H-Ala-Gln-OH)
heat stability ([1]; compared to glutamine): superior | solubility in aqueous solutions ([1]; compared to glutamine): superior | degradation in the body [2]: immediately degraded into alanine and glutamine | awaking (healthy person; 0.5 g daily before going to bed): improvement in awaking | awaking (healthy person; 1.5 g daily): improvement in awaking
